Data on one compound can be found in ChEMBL document CHEMBL1145818, “Effect of detergent on "promiscuous" inhibitors” (J Med Chem, 2003).

For assay [1], the target named is Chymotrypsinogen A (Bos taurus) (UniProt P00766). Description: Concentration required for the inhibition of Chymotrypsinogen.
Assay [2] addresses T1, Dihydrofolate reductase (Homo sapiens) (UniProt P00374).
T1 sequence (whole entry): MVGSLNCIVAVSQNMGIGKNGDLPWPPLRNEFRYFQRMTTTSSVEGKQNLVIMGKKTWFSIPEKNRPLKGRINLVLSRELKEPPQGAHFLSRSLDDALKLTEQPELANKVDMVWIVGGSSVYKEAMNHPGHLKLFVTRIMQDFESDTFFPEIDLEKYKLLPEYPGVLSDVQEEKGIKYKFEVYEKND
Description: Concentration required for the inhibition of dihydrofolate reductase.

Regarding `Nc1c(/N=N/c2ccc(-c3ccc(/N=N/c4cc(S(=O)(=O)O)c5ccccc5c4N)cc3)cc2)cc(S(=O)(=O)O)c2ccccc12`, the Concentration in assay [1] came out at 40 µM; in assay [2], 0.4 µM.
